A short description of data set [1]: Stability of the compound in DMEM media with 10% fetal bovine serum assessed as hydrolysis of prodrug at 25 uM measured for 5 mins by RP-HPLC analysis. The format is ADME, cell-free. As to conditions: cattle.
Data set [2] is described as follows: Apparent permeability of the compound across apical to basolateral side in human Caco-2 cells. It counts as ADME, cell-based. In general terms: Caco-2 monolayers are a common model of the intestinal barrier.
Data set [3] is described as follows: Tmax in C57BL/6 mouse at 10 mg/kg, ip measured up to 24 hrs by LC-MS/MS analysis. The conditions noted are these: in vivo. The format is ADME, organism-based.
Data set [4] is described as follows: Tmax in C57BL/6 mouse at 20 mg/kg, po measured up to 24 hrs by LC-MS/MS analysis. As to conditions: in vivo. The format is ADME, organism-based.

What is called Papp A→B is how fast a substance crosses the layer from the apical side. The term Tmax denotes the time from dosing to the highest level.

On to `NCCCOc1cc2ccccc2cc1C(=O)NCCOc1cc2ccccc2cc1C(=O)Nc1ccc(Cl)cc1OCOP(=O)(O)O.O=C(O)C(F)(F)F`, for which, in data set [1], the t1/2 was 2.61 h.
For the molecule `Cl.NCCCOc1cc2ccccc2cc1C(=O)NCCOc1cc2ccccc2cc1C(=O)Nc1ccc(Cl)cc1O`, the Papp A→B in data set [2] was less than 1.1 nm/s. Further, the time of peak concentration (Tmax) in data set [3] stood at 0.25 h; in data set [4], 2 h.
For `NCCCOc1cc2ccccc2cc1C(=O)NCCOc1cc2ccccc2cc1C(=O)Nc1ccc(Cl)cc1OP(=O)(O)O.O=C(O)C(F)(F)F`, the time of peak concentration (Tmax) stood at 1 h in data set [3] and 2 h in data set [4].
